Measurements reported in patent EP4703358A1, “BENZO SIX-MEMBERED HETEROCYCLIC GSPT1 PROTEIN DEGRADATION AGENT AND USE THEREOF” (China Pharmaceutical University, priority 2023, dated 2024).

Key:
GSPT1 protein = biological target: T1, GSPT1 protein (Homo sapiens, UniProt P15170+Q96SW2); assay: Degradation of GSPT1 in KG-1 cells (Western blot); format: cell-based; design: percent GSPT1 degradation: dose or concentration left out as unconfirmed; conditions: for percent GSPT1 degradation at 0.2 µM: KG-1 cells, compound concentration 200 nM, 4 hours
T1 construct: host or cells: KG-1 cells
Procedure: KG-1 cells (ATCC) were grown in an IMDM culture medium (containing 20% FBS). After centrifugation and counting, the cell concentration was adjusted. The cells were plated onto 6-well plates at 10^6 cells/well, with 1350 µL per well. 150 µL of DMSO and the test compounds of the present disclosure (compound concentration: 200 nM) were added. The plates were incubated in an incubator at 37 °C with 5% CO2 for 4 hours. The cells were centrifuged, and the culture medium was discarded. PBS was added to wash the cells and then discarded. Whole cell lysates were prepared using a protease inhibitor cocktail (100×, Fude Biological), a protein phosphatase inhibitor cocktail (100×, Fude Biological), SuperNuclease (Beyotime), and a high-intensity RIPA lysis buffer (Thermo Fisher) and placed on ice for 30 minutes. After centrifugation, the cell debris precipitates were discarded, and the whole cell lysate supernatants were collected and transferred to new centrifuge tubes. After a BCA protein assay, samples were prepared using a 5× loading buffer (Thermo Fisher). The samples were subjected to protein electrophoresis separation in a 4-20% precast gel (SDS-PAGE gel), transferred to a PVDF membrane, then blocked with 5% NFDM/TBST at room temperature for 1 hour, incubated overnight with primary antibodies at 4 °C, and incubated with a secondary antibody at room temperature for 2 hours the next day. Signals were detected using a MINICHEMITM imaging system.
Primary antibodies: • Anti-GSPT1: Abcam ab234433 • Anti-beta actin: Fude Biological FD0060
Secondary antibody: Anti-rabbit peroxidase-linked secondary antibody: Fude Biological FDG007
The degradation effects of the compounds on GSPT1 protein are shown in Table 1, where A represents a GSPT1 protein degradation percentage of no less than 80%, B represents a degradation percentage of less than 80% but no less than 50%, C represents a degradation percentage of less than 50% but no less than 25%, and D represents a degradation percentage of less than 25%. Table 1. The degradation of GSPT1 protein by compounds

KG-1 cells = assay: Antiproliferative activity against KG-1 cells (CCK8); format: cell-based; conditions: Homo sapiens, 72 hours
Procedure: KG-1 cells in the logarithmic growth phase were diluted in a culture medium (RPMI + 10% FBS) and plated onto 96-well plates at 5000 cells/well, and the plates were incubated in an incubator at 37 °C with 5% CO2 for 24 hours. 10 mM stock solutions of the test compounds of the present disclosure in DMSO were prepared and diluted with the culture medium to set 9 concentration gradients. Three replicate wells were set for each concentration. After compound addition, the plates were incubated in an incubator at 37 °C with 5% CO2 for 72 hours. The cell proliferation was assessed using the CCK8 method. The cell growth inhibition IC50 values of the compounds were determined using an enzyme labeling method. The IC50 values were calculated using GraphPad Prism 7 software.
The antiproliferative activity of the compounds against KG-1 cells is shown in Table 2, where A represents IC50 < 1 nM, B represents 1 ≤ IC50 < 10 nM, C represents 10 nM ≤ IC50 < 100 nM, D represents 100 nM ≤ IC50 < 1000 nM, and E represents IC50 ≥ 1000 nM. Table 2. The antiproliferative activity of compounds against KG-1 cells

T1 sequence (P15170 whole entry): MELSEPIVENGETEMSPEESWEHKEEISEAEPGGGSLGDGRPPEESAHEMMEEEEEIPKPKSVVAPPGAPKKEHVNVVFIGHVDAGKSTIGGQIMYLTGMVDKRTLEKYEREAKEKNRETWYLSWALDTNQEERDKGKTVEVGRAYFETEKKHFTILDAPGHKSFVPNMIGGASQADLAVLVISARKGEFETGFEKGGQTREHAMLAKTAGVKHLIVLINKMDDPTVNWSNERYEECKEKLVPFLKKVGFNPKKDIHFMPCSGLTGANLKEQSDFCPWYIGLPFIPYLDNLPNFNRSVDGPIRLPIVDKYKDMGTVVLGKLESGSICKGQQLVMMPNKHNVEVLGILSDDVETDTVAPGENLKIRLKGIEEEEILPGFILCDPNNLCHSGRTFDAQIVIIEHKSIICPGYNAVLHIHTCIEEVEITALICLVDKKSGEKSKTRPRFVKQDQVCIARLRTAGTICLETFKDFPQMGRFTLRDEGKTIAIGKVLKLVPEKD
T1 sequence (Q96SW2 whole entry): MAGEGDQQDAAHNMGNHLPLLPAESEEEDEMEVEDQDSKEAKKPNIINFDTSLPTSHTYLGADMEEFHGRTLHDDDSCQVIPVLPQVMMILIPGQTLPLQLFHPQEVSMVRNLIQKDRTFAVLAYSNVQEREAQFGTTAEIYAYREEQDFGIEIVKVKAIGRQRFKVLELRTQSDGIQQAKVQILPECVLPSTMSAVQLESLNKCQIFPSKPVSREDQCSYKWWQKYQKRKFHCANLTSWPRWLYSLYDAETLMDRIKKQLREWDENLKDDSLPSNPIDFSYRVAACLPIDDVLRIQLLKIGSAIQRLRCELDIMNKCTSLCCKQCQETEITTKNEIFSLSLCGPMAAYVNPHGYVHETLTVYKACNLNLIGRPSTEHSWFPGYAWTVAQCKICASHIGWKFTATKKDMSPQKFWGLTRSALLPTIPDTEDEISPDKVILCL
T1 sequence (Q16531 whole entry partner): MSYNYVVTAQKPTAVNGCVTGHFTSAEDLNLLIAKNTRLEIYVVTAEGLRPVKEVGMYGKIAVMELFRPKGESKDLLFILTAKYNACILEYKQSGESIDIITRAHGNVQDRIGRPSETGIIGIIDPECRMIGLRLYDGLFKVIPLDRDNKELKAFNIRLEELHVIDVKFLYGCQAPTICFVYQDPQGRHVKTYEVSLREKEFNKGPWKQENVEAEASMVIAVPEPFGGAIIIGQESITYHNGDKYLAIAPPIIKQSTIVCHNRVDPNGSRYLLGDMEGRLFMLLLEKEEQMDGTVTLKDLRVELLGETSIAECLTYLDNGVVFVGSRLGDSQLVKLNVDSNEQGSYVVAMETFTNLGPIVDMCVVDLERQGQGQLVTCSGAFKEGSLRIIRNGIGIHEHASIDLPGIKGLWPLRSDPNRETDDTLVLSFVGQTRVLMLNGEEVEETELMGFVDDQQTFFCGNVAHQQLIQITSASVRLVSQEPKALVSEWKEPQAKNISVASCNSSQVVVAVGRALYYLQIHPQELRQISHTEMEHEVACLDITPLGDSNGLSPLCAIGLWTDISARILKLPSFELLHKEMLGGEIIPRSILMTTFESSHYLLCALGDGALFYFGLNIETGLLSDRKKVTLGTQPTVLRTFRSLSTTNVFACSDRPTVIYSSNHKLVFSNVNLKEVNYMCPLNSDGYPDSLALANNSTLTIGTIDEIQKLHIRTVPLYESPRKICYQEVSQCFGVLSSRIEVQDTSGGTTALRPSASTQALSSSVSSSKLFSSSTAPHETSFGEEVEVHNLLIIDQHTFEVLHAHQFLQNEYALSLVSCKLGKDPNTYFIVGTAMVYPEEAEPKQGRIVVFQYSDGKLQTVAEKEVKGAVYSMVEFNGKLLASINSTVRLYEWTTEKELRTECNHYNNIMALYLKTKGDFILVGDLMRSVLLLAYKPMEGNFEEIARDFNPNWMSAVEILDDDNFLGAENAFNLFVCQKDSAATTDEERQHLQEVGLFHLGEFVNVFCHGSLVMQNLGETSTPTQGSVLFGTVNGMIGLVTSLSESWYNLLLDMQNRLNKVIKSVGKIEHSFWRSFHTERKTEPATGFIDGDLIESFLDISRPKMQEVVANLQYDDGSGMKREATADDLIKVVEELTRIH

Row | Structure (SMILES) | percent GSPT1 degradation at 0.2 µM (GSPT1 protein) | IC50 (KG-1 cells) | percent GSPT1 degradation (GSPT1 protein; KG-1, 4 h, read-out: GSPT1 degradation)
1 | Cc1cc2c(cc1F)OCC(C(=O)NCc1ccc3c(c1)CN(C1CCC(=O)NC1=O)C3=O)=C2 (centres unmarked) [Compound A-30, N-((2-(2,6-Dioxopiperidin-3-yl)-1-oxoisoindolin-5-yl)methyl)-7-fluoro-6-methyl-2H-chromene-3-carboxamide] | > 80% | 10 to 100 nM | –
2 | Cc1cc(F)cc2c1OCC(C(=O)NCc1ccc3c(c1)CN(C1CCC(=O)NC1=O)C3=O)=C2 (centres unmarked) [Compound A-31, N-((2-(2,6-Dioxopiperidin-3-yl)-1-oxoisoindolin-5-yl)methyl)-6-fluoro-8-methyl-2H-chromene-3-carboxamide] | > 80% | 1 to 10 nM | –
3 | O=C1CCC(N2Cc3cccc(CNC(=O)C4=Cc5cc(OC(F)(F)F)ccc5OC4)c3C2=O)C(=O)N1 (centres unmarked) [Compound A-39, N-((2-(2,6-Dioxopiperidin-3-yl)-3-oxoisoindolin-4-yl)methyl)-6-(trifluoromethoxy)-2H-chromene-3-carboxamide] | 50 to 80% | 10 to 100 nM | –
4 | O=C1CCC(N2Cc3cc(CNC(=O)C4=Cc5ccc(F)cc5OC4)ccc3C2=O)C(=O)N1 (centres unmarked) [Compound A-4, N-((2-(2,6-Dioxopiperidin-3-yl)-1-oxoisoindolin-5-yl)methyl)-7-fluoro-2H-chromene-3-carboxamide] | 50 to 80% | 10 to 100 nM | –
5 | CC(=O)Nc1ccc2c(c1)C=C(C(=O)NCc1ccc3c(c1)CN(C1CCC(=O)NC1=O)C3=O)CO2 (centres unmarked) [Compound A-23, N-((2-(2,6-Dioxopiperidin-3-yl)-1-oxoisoindolin-5-yl)methyl)-6-(acetamido)-2H-chromene-3-carboxamide] | 25 to 50% | ≥ 1000 nM | –
6 | CC(C)(C)c1ccc2c(c1)C=C(C(=O)NCc1ccc3c(c1)CN(C1CCC(=O)NC1=O)C3=O)CO2 (centres unmarked) [Compound A-16, N-((2-(2,6-Dioxopiperidin-3-yl)-1-oxoisoindolin-5-yl)methyl)-6-tert-butyl-2H-chromene-3-carboxamide] | 50 to 80% | 10 to 100 nM | –
7 | O=C1CCC(N2Cc3cc(CNC(=O)C4=Cc5cccc(OC(F)(F)F)c5OC4)ccc3C2=O)C(=O)N1 (centres unmarked) [Compound A-19, N-((2-(2,6-Dioxopiperidin-3-yl)-1-oxoisoindolin-5-yl)methyl)-8-trifluoromethoxy-2H-chromene-3-carboxamide] | > 80% | 1 to 10 nM | –
8 | COc1ccc2c(c1)C=C(C(=O)NCc1ccc3c(c1)CN(C1CCC(=O)NC1=O)C3=O)CO2 (centres unmarked) [Compound A-8, N-((2-(2,6-Dioxopiperidin-3-yl)-1-oxoisoindolin-5-yl)methyl)-6-methoxy-2H-chromene-3-carboxamide] | 50 to 80% | 10 to 100 nM | –
9 | O=C1CCC(N2Cc3cc(CNC(=O)C4=Cc5cccc(C(F)(F)F)c5OC4)ccc3C2=O)C(=O)N1 (centres unmarked) [Compound A-18, N-((2-(2,6-Dioxopiperidin-3-yl)-1-oxoisoindolin-5-yl)methyl)-8-trifluoromethyl-2H-chromene-3-carboxamide] | > 80% | < 1 nM | –
10 | Cc1cccc2c1C=C(C(=O)NCc1ccc3c(c1)CN(C1CCC(=O)NC1=O)C3=O)CO2 (centres unmarked) [Compound A-22, N-((2-(2,6-Dioxopiperidin-3-yl)-1-oxoisoindolin-5-yl)methyl)-5-methyl-2H-chromene-3-carboxamide] | > 80% | 1 to 10 nM | –
11 | Cc1cc2c(cc1C)OCC(C(=O)NCc1ccc3c(c1)CN(C1CCC(=O)NC1=O)C3=O)=C2 (centres unmarked) [Compound A-37, N-((2-(2,6-Dioxopiperidin-3-yl)-1-oxoisoindolin-5-yl)methyl)-6,7-dimethyl-2H-chromene-3-carboxamide] | > 80% | 10 to 100 nM | –
12 | O=C1CCC(N2Cc3cc(CNC(=O)C4=Cc5cc(F)cc(F)c5OC4)ccc3C2=O)C(=O)N1 (centres unmarked) [Compound A-33, N-((2-(2,6-Dioxopiperidin-3-yl)-1-oxoisoindolin-5-yl)methyl)-6,8-difluoro-2H-chromene-3-carboxamide] | > 80% | 1 to 10 nM | –
13 | O=C1CCC(N2Cc3c(CNC(=O)C4=Cc5cc(OC(F)(F)F)ccc5OC4)cccc3C2=O)C(=O)N1 (centres unmarked) [Compound A-41, N-((2-(2,6-Dioxopiperidin-3-yl)-1-oxoisoindolin-4-yl)methyl)-6-(trifluoromethoxy)-2H-chromene-3-carboxamide] | 50 to 80% | 10 to 100 nM | –
14 | N#Cc1ccc2c(c1)C=C(C(=O)NCc1ccc3c(c1)CN(C1CCC(=O)NC1=O)C3=O)CO2 (centres unmarked) [Compound A-11, N-((2-(2,6-Dioxopiperidin-3-yl)-1-oxoisoindolin-5-yl)methyl)-6-cyano-2H-chromene-3-carboxamide] | > 80% | 10 to 100 nM | –
15 | O=C1CCC(N2Cc3cc(CNC(=O)C4=Cc5cc(F)c(F)cc5OC4)ccc3C2=O)C(=O)N1 (centres unmarked) [Compound A-35, N-((2-(2,6-Dioxopiperidin-3-yl)-1-oxoisoindolin-5-yl)methyl)-6,7-difluoro-2H-chromene-3-carboxamide] | – | 10 to 100 nM | > 80%
16 | O=C1CCC(N2Cc3cc(CNC(=O)C4=Cc5cc(-c6ccccc6)ccc5OC4)ccc3C2=O)C(=O)N1 (centres unmarked) [Compound A-17, N-((2-(2,6-Dioxopiperidin-3-yl)-1-oxoisoindolin-5-yl)methyl)-6-phenyl-2H-chromene-3-carboxamide] | 50 to 80% | 100 to 1000 nM | –
17 | O=C1CCC(N2Cc3cc(CNC(=O)C4=Cc5c(F)cc(F)cc5OC4)ccc3C2=O)C(=O)N1 (centres unmarked) [Compound A-34, N-((2-(2,6-Dioxopiperidin-3-yl)-1-oxoisoindolin-5-yl)methyl)-5,7-difluoro-2H-chromene-3-carboxamide] | > 80% | 1 to 10 nM | –
18 | O=C1CCC(N2Cc3ccc(CNC(=O)C4=Cc5cc(OC(F)(F)F)ccc5OC4)cc3C2=O)C(=O)N1 (centres unmarked) [Compound A-40, N-((2-(2,6-Dioxopiperidin-3-yl)-3-oxoisoindolin-5-yl)methyl)-6-(trifluoromethoxy)-2H-chromene-3-carboxamide] | 50 to 80% | 10 to 100 nM | –
19 | O=C1CCC(N2Cc3cc(CNC(=O)C4=Cc5cccc(F)c5OC4)ccc3C2=O)C(=O)N1 (centres unmarked) [Compound A-5, N-((2-(2,6-Dioxopiperidin-3-yl)-1-oxoisoindolin-5-yl)methyl)-8-fluoro-2H-chromene-3-carboxamide] | > 80% | 1 to 10 nM | –
20 | O=C1CCC(N2Cc3cc(CNC(=O)C4COc5ccc(F)cc5C4)ccc3C2=O)C(=O)N1 (centres unmarked) [Compound B-2, N-((2-(2,6-Dioxopiperidin-3-yl)-1-oxoisoindolin-5-yl)methyl)-6-fluorochromane-3-carboxamide] | > 80% | 1 to 10 nM | –
21 | O=C1CCC(N2Cc3cc(CNC(=O)C4=Cc5cc(NC(=O)CO)ccc5OC4)ccc3C2=O)C(=O)N1 (centres unmarked) [Compound A-25, N-((2-(2,6-Dioxopiperidin-3-yl)-1-oxoisoindolin-5-yl)methyl)-6-(2-hydroxyacetamido)-2H-chromene-3-carboxamide] | 25 to 50% | ≥ 1000 nM | –
22 | O=C1CCC(N2Cc3c(ccc(CNC(=O)C4=Cc5cccc(OC(F)(F)F)c5OC4)c3F)C2=O)C(=O)N1 (centres unmarked) [Compound A-43, N-((2-(2,6-Dioxopiperidin-3-yl)-4-fluoro-1-oxoisoindolin-5-yl)methyl)-8-(trifluoromethoxy)-2H-chromene-3-carboxamide] | > 80% | 1 to 10 nM | –
